Usually IC50 stands for the concentration that inhibits the measured activity by half. A lower IC50 goes with greater potency.

Among the data in patent US10294207B2, “Pyrazole derivatives as TNIK, IKKϵ and TBK1 inhibitor and pharmaceutical composition comprising same” (GREEN CROSS CORPORATION, priority 2015, dated 2019) are IC50 values, retold here.

What all share (format): biochemical
Details in all cases: luminometer

The target in one assay is T1, TNIK (Homo sapiens, UniProt Q9UKE5).
T1 construct: purchased Promega V4158
The assay is described as follows: TNIK inhibition, ADP-Glo Kinase Assay. On the procedure:
Inhibition activities on TNIK, IKKε and TBK1 were evaluated using the compounds of Examples 1 to 254.
The inhibition activities on TNIK, IKKε and TBK1 were measured by a luminometer, TNIK/IKKε/TBK1 Kinase Enzyme System (Promega, Ca# V4158; Invitrogen, PR8031B, Promega, Ca# V3991) and ADP-Glo Kinase Assay using ADP-Glo™ Kinase Analysis Kit (Promega, Ca# V9101) and a kinase reaction buffer [40 mM Tris(pH 7.5), 20 mM MgCl2, 0.1 mg/mL BSA] in accordance with the manufacturer's protocol.
In general terms: In ADP-Glo the light output rises with the ADP produced.

A further assay deals with T2, TBK1 (Homo sapiens, UniProt Q9UHD2).
T2 construct: purchased Promega V3991
T2 sequence (Q9UHD2 1-729): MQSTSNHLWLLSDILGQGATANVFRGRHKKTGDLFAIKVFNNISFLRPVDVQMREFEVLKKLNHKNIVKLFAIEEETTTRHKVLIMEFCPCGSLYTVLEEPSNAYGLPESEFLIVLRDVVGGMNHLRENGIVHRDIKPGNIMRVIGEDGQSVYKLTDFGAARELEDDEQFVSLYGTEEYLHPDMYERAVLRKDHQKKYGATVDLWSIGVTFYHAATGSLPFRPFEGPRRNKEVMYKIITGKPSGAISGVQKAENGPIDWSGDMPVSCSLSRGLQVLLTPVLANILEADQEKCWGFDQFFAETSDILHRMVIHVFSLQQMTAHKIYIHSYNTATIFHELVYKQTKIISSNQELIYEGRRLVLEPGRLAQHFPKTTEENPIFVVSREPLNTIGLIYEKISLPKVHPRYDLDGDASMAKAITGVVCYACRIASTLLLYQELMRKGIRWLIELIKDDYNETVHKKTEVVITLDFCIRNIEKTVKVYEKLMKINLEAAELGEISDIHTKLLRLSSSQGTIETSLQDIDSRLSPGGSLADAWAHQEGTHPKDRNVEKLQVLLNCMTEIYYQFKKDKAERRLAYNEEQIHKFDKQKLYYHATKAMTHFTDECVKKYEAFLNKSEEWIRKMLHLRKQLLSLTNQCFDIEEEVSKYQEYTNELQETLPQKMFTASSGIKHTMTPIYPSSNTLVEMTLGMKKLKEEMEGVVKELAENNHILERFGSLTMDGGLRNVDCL
The assay is described as follows: TBK1 inhibition, ADP-Glo Kinase Assay. The method, boiled down:
(§1)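 ADP-Glo luminescence reported ADP produced by each kinase, following the kit protocol. Reactions used commercial kinase enzyme systems in buffer of 40 mM Tris (pH 7.5), 20 mM MgCl2 and 0.1 mg/mL BSA.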

For the next assay, the target named is T3, IKKε (Homo sapiens, UniProt Q14164).
T3 construct: purchased Invitrogen PR8031B
T3 sequence (Q14164 1-716): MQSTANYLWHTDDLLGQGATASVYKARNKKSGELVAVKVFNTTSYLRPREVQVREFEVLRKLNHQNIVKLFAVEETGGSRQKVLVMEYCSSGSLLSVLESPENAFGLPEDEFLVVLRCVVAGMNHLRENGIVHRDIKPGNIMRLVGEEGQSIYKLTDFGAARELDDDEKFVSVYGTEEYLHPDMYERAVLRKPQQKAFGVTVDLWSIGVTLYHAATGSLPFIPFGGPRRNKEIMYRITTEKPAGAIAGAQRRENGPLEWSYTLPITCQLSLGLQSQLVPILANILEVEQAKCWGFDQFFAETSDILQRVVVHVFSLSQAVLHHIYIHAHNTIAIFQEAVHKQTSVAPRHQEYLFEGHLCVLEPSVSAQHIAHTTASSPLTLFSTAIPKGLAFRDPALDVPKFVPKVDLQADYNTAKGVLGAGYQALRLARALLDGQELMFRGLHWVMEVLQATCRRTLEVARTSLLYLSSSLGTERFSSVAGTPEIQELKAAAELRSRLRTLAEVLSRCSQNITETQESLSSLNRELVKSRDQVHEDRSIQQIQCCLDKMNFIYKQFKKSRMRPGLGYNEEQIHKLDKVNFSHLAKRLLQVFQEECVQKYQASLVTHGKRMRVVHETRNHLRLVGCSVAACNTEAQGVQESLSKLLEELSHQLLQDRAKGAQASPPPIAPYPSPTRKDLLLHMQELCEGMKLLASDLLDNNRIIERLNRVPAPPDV
The assay is described as follows: IKKε inhibition, ADP-Glo Kinase Assay. The method, boiled down:
as §1

T1 sequence (Q9UKE5 1-367 limits assumed): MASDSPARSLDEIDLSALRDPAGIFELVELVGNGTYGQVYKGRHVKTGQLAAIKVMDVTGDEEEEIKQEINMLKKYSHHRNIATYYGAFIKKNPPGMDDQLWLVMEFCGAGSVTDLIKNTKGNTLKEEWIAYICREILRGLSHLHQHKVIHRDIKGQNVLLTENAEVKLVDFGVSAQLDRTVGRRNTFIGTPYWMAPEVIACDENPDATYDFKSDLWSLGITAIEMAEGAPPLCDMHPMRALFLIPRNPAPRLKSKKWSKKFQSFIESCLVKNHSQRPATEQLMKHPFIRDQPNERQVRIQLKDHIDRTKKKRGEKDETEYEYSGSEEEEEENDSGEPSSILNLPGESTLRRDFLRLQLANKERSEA

For `Cc1cnc(-c2cc3[nH]nc(NC(=O)c4ccc(NCCO)cc4)c3s2)o1` [Example 228, 4-((2-hydroxyethyl)amino)-N-(5-(5-methyloxazol-2-yl)-1H-thieno[3,2-c]pyrazol-3-yl)benzamide], the figures for the 50% inhibitory concentration (IC50) against TNIK and at TBK1 were 0.11 µM and 0.12 µM, respectively.
Consider `COC(=O)c1cc2[nH]nc(-c3ccc(OC)cc3)c2s1` [Example 231, methyl 3-(4-methoxyphenyl)-1H-thieno[3,2-c]pyrazole-5-carboxylate], for which the figures for the 50% inhibitory concentration (IC50) against TNIK and on TBK1 were 0.54 µM and over 10 µM, respectively.
Turning to `Cc1cnc(-c2cc3[nH]nc(NC(=O)c4ccc(N5CCN(C)CC5)cc4)c3s2)o1` [Example 225, N-(5-(5-methyloxazol-2-yl)-1H-thieno[3,2-c]pyrazol-3-yl)-4-(4-methylpiperazin-1-yl)benzamide], the results for the IC50 against TNIK, against TBK1 and against IKKε were 0.049 µM, 0.13 µM and 0.35 µM, respectively.
Turning to `COc1ccc(-c2n[nH]c3cc(C(=O)NC(C)C)sc23)cc1` [Example 233, N-isopropyl-3-(4-methoxyphenyl)-1H-thieno[3,2-c]pyrazole-5-carboxamide], the IC50 against TNIK was 2.86 µM; on TBK1 it was over 10 µM.
Regarding `Cc1cnc(-c2cc3[nH]nc(NC(=O)c4ccc(NCCN5CCCCC5)cc4)c3s2)o1` [Example 224, N-(5-(5-methyloxazol-2-yl)-1H-thieno[3,2-c]pyrazol-3-yl)-4-((2-(piperidin-1-yl)ethyl)amino)benzamide], the results for the IC50 at TNIK, against TBK1 and against IKKε were 0.085 µM, 0.12 µM and 0.32 µM, respectively.
In the case of `COC(=O)c1cc2[nH]nc(-c3ccc(N4CCOCC4)cc3)c2s1` [Example 254, methyl 3-(4-morpholinophenyl)-1H-thieno[3,2-c]pyrazole-5-carboxylate], the IC50 was 0.3 µM against TNIK and over 10 µM against TBK1.
For `Cc1cnc(-c2cc3[nH]nc(NC(=O)c4ccccc4)c3s2)o1` [Example 220, N-(5-(5-methyloxazol-2-yl)-1H-thieno[3,2-c]pyrazol-3-yl)benzamide], the values for the 50% inhibitory concentration (IC50) on TNIK and against TBK1 were 0.36 µM and 1.2 µM, respectively.
With `CCc1cnc(-c2cc3[nH]nc(NC(=O)c4ccc(N5CCOCC5)cc4)c3s2)s1` [Example 252, N-(5-(5-ethylthiazol-2-yl)-1H-thieno[3,2-c]pyrazol-3-yl)-4-morpholinobenzamide], the half-maximal inhibitory concentration (IC50) against TNIK came out at 0.41 µM; against TBK1, 1.3 µM.
For `Cc1cnc(-c2cc3[nH]nc(NC(=O)c4ccc(F)cc4)c3s2)o1` [Example 221, 4-fluoro-N-(5-(5-methyloxazol-2-yl)-1H-thieno[3,2-c]pyrazol-3-yl)benzamide], the half-inhibitory concentration (IC50) against TNIK amounted to 0.65 µM; at TBK1, 1.7 µM.
As to `O=C(NCCN1CCOCC1)c1cc2[nH]nc(-c3ccc(F)cc3)c2s1` [Example 242, 3-(4-fluorophenyl)-N-(2-morpholinoethyl)-1H-thieno[3,2-c]pyrazole-5-carboxamide], the half-maximal inhibitory concentration (IC50) against TNIK is over 20 µM; at TBK1, over 10 µM.
Take `COc1ccc(C(=O)Nc2n[nH]c3cc(-c4ncc(C)o4)sc23)cc1` [Example 222, 4-methoxy-N-(5-(5-methyloxazol-2-yl)-1H-thieno[3,2-c]pyrazol-3-yl)benzamide]: the values for the IC50 on TNIK and at TBK1 were 0.31 µM and 0.35 µM, respectively.
For `CCNC(=O)c1cc2[nH]nc(-c3ccc(N4CCOCC4)cc3)c2s1` [Example 241, N-ethyl-3-(4-morpholinophenyl)-1H-thieno[3,2-c]pyrazole-5-carboxamide] the same measures were 1.09 µM and over 10 µM.
In the case of `CCNC(=O)c1cc2[nH]nc(-c3ccc(OC)cc3)c2s1` [Example 232, N-ethyl-3-(4-methoxyphenyl)-1H-thieno[3,2-c]pyrazole-5-carboxamide], the 50% inhibitory concentration (IC50) against TNIK was 1.95 µM; on TBK1, over 10 µM.
For `Cc1cnc(-c2cc3[nH]nc(NC(=O)c4ccc(NCCN5CCCC5)cc4)c3s2)o1` [Example 226, N-(5-(5-methyloxazol-2-yl)-1H-thieno[3,2-c]pyrazol-3-yl)-4-((2-(pyrrolidin-1-yl)ethyl)amino)benzamide] the same measures were 0.15 µM and 0.12 µM.
For the compound `Cc1cnc(-c2cc3[nH]nc(-c4ccc(N5CCOCC5)cc4)c3s2)o1` [Example 243, 4-(4-(5-(5-methyloxazol-2-yl)-1H-thieno[3,2-c]pyrazol-3-yl)phenyl)morpholine], the figures for the IC50 against TNIK and against TBK1 were 0.15 µM and over 10 µM, respectively.
Regarding `Cc1cnc(-c2cc3[nH]nc(NC(=O)c4ccc(NCCN5CCOCC5)cc4)c3s2)o1` [Example 227, N-(5-(5-methyloxazol-2-yl)-1H-thieno[3,2-c]pyrazol-3-yl)-4-((2-morpholinoethyl)amino)benzamide], the IC50 on TNIK turned out to be 0.085 µM; at TBK1, 0.12 µM.
For `Cc1cnc(-c2cc3[nH]nc(NC(=O)c4ccc(NCCN5CCCCC5)cc4)c3s2)s1` [Example 253, N-(5-(5-methylthiazol-2-yl)-1H-thieno[3,2-c]pyrazol-3-yl)-4-((2-(piperidin-1-yl)ethyl)amino)benzamide] the same measures were 0.28 µM and 0.62 µM.
With `CCNC(=O)c1cc2[nH]nc(-c3ccc(F)cc3)c2s1` [Example 240, N-ethyl-3-(4-fluorophenyl)-1H-thieno[3,2-c]pyrazole-5-carboxamide], the IC50 on TNIK is 2.85 µM; at TBK1, over 10 µM.
